The structures appear in SMILES notation.

The subject of assay [1] is Shewanella sp. O23S strain. In words: Dissimilatory reduction of 2.5 mM sodium arsenate in the presence of heavy metals. In kind it is cell-based. The settings on record: minimal R1-R2 medium; for Reduction of arsenic in the presence of the metal (maximum concentration of metals allowing for dissimilatory reduction of 2.5 mM sodium arsenate): 5 mM sodium lactate.
Assay [2] concerns Shewanella sp. O23S strain. In words: Minimal inhibitory concentration (MIC) of heavy metals in LB medium. In kind it is cell-based. The settings on record: 24 hours at 22° C., OD600.

Turning to `O.O.O.O.O.O.O.O=S(=O)([O-])[O-].[Co+2]` [Co(II), CoSO4•7H2O], the “Reduction of arsenic in the presence of the metal (maximum concentration of metals allowing for dissimilatory reduction of 2.5 mM sodium arsenate)” value (from here on “Reduction of arsenic”) in assay [1] turned out to be 2 mM. The compound also returned an MIC value in assay [2] of 2 mM.

For `[Fe+3]` [Fe(III)], the “capability of dissimilatory reduction in the presence of the metal” value in assay [1] is “not demonstrated”. The same compound registered an MIC value in assay [2] of 5 mM.

Regarding `[Na+].[O]=[V](=[O])[O-]` [V(V), NaVO3], the “Reduction of arsenic” value in assay [1] is on record as greater than 5 mM. Moreover, the MIC value in assay [2] is recorded as greater than 20 mM.

Turning to `O.O.O.O.O.O.O.O.O=S(=O)([O-])[O-].[Cd+2]` [Cd(II), CdSO4•8H2O], the “Reduction of arsenic” value in assay [1] was 1 mM. In assay [2], this compound had an MIC value of 1 mM.

As to `O.O.O.O.O.O.O.O.O.O.O.O.O.O.O.O.O.O.O=S(=O)([O-])[O-].O=S(=O)([O-])[O-].O=S(=O)([O-])[O-].[Cr+3].[Cr+3]` [Cr(III), Cr2(SO4)3•18H2O], the “Reduction of arsenic” value in assay [1] is given as 3 mM. The compound further displayed an MIC value in assay [2] of 5 mM.

Take `O.O.O.O.O.O=S(=O)([O-])[O-].[Cu+2]` [Cu(II), CuSO4•5H2O]: the “Reduction of arsenic” value in assay [1] turned out to be 2 mM. The MIC value in assay [2] amounted to 3 mM.

Consider `O.O=S(=O)([O-])[O-].[Mn+2]` [Mn(II), MnSO4•H2O], for which the “Reduction of arsenic” value in assay [1] is reported as greater than 5 mM. The compound further yielded an MIC value in assay [2] greater than 20 mM.

On to `O.O.O.O.O.O.O.O.O.O.O=[Se](=O)([O-])[O-].[Na+].[Na+]` [Se(VI), Na2SeO4•10H2O], for which the “Reduction of arsenic” value in assay [1] was found to be 5 mM. The compound also displayed an MIC value in assay [2] greater than 20 mM.

Turning to `O.O.O.O.O.O.O.O=S(=O)([O-])[O-].[Zn+2]` [Zn(II), ZnSO4•7H20], the “Reduction of arsenic” value in assay [1] came out at 2 mM. In assay [2], the MIC value is on record as 3 mM.
